PubChem BioAssay AID248 (DTP/NCI, 2004)
Toxic doses and inconclusive results are not listed. No stated cut-off is given here; in the data, active means T/C of 150% or more; inactive means T/C below 125%.

Tested on: L1210 leukemia ip in BDF1 mice, survival T/C
Test: NCI In Vivo Anticancer Drug Screen. Data for tumor model L1210 Leukemia (intraperitoneal) in B6D2F1 (BDF1) mice
Settings: endpoint: mean survival time, higher = longer survival
Outline: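 Tumor cells were implanted, animals were treated, and survival was followed. The result divides the treated measurement by the vehicle-control measurement.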

[1] = dose: 100.0 mg/kg/injection, schedule: Q04DX002 (ip), vehicle: Klucel (hydroxypropylcellulose) (HPC)
[2] = dose: 200.0 mg/kg/injection, schedule: Q04DX002 (ip), vehicle: Klucel (hydroxypropylcellulose) (HPC)
[3] = dose: 400.0 mg/kg/injection, schedule: Q04DX002 (ip), vehicle: Klucel (hydroxypropylcellulose) (HPC)
[4] = dose: 75.0 mg/kg/injection, schedule: Q01DX001 (ip), vehicle: carboxymethylcellulose (CMC)
[5] = dose: 150.0 mg/kg/injection, schedule: Q01DX001 (ip), vehicle: carboxymethylcellulose (CMC)
[6] = dose: 300.0 mg/kg/injection, schedule: Q01DX001 (ip), vehicle: carboxymethylcellulose (CMC)
[7] = dose: 150.0 mg/kg/injection, schedule: Q01DX001 (ip), vehicle: saline
[8] = dose: 100.0 mg/kg/injection, schedule: Q04DX003 (ip), vehicle: saline with Tween-80
[9] = dose: 200.0 mg/kg/injection, schedule: Q04DX003 (ip), vehicle: saline with Tween-80
[10] = dose: 400.0 mg/kg/injection, schedule: Q04DX003 (ip), vehicle: saline with Tween-80
[11] = dose: 100.0 mg/kg/injection, schedule: Q04DX002 (ip), vehicle: saline with Tween-80
[12] = dose: 200.0 mg/kg/injection, schedule: Q04DX002 (ip), vehicle: saline with Tween-80
[13] = dose: 400.0 mg/kg/injection, schedule: Q04DX002 (ip), vehicle: saline with Tween-80
[14] = dose: 100.0 mg/kg/injection, schedule: Q04DX003 (ip), vehicle: Klucel (hydroxypropylcellulose) (HPC)
[15] = dose: 200.0 mg/kg/injection, schedule: Q04DX003 (ip), vehicle: Klucel (hydroxypropylcellulose) (HPC)
[16] = dose: 400.0 mg/kg/injection, schedule: Q04DX003 (ip), vehicle: Klucel (hydroxypropylcellulose) (HPC)
[17] = dose: 100.0 mg/kg/injection, schedule: Q01DX009 (ip), vehicle: Klucel (hydroxypropylcellulose) (HPC)
[18] = dose: 200.0 mg/kg/injection, schedule: Q01DX009 (ip), vehicle: Klucel (hydroxypropylcellulose) (HPC)
[19] = dose: 400.0 mg/kg/injection, schedule: Q01DX009 (ip), vehicle: Klucel (hydroxypropylcellulose) (HPC)

Measured: T/C

CCn1c(C)nc2cc(N=Cc3ccc(N(CCCl)CCCl)cc3C)ccc21
inactive: dose: 87.5 mg/kg/injection, schedule: Q04DX002 (ip), vehicle: Klucel (hydroxypropylcellulose) (HPC) 102 % of control | [1] 95 % of control | dose: 175.0 mg/kg/injection, schedule: Q04DX002 (ip), vehicle: Klucel (hydroxypropylcellulose) (HPC) 102 % of control | [2] 102 % of control | dose: 350.0 mg/kg/injection, schedule: Q04DX002 (ip), vehicle: Klucel (hydroxypropylcellulose) (HPC) 98 % of control | [3] 102 % of control

COC(=O)/C=C(\C(=O)OC)c1c(-c2ccccc2)[nH]c2ccccc12
inactive: [4] 92 % of control | [5] 89 % of control | [6] 94 % of control

O=[N+]([O-])c1ccc2sc3ccccc3c2c1
inactive: [1] 108 % of control | [2] 97 % of control | [3] 101 % of control

Clc1ccc(CNc2ccccn2)s1
inactive: [7] 88 % of control

CCN(CC)c1ccc(N=C2C=C(C(=O)Nc3cccc(Cl)c3)C(=O)c3ccccc32)c(C)c1
inactive: dose: 100.0 mg/kg/injection, schedule: Q01DX001 (ip), vehicle: other 92 % of control | dose: 200.0 mg/kg/injection, schedule: Q01DX001 (ip), vehicle: other 92 % of control | dose: 400.0 mg/kg/injection, schedule: Q01DX001 (ip), vehicle: other 96 % of control

CCS(=O)(=O)CCNC(=O)NS(=O)(=O)c1ccc(C)cc1
inactive: [8] 97 % of control | [9] 97 % of control | [10] 90 % of control

Cc1cc(OC(=O)c2ccccc2)cc(C)c1OC(=O)c1ccccc1
inactive: [11] 96 % of control | [12] 100 % of control | [13] 96 % of control

Nc1ncnc2c1c(Br)cn2C1OC(CO)C(O)C1O (stereo not drawn)
inactive: dose: 5.0 mg/kg/injection, schedule: Q01DX001 (ip), vehicle: carboxymethylcellulose (CMC) 106 % of control

CN(CCO)C(=O)c1ccc([N+](=O)[O-])cc1
inactive: [14] 91 % of control | [15] 88 % of control | [16] 107 % of control

CCCCCCCCN(CC)CC
inactive: dose: 50.0 mg/kg/injection, schedule: Q01DX001 (ip), vehicle: saline 88 % of control | dose: 100.0 mg/kg/injection, schedule: Q01DX001 (ip), vehicle: saline 90 % of control | dose: 200.0 mg/kg/injection, schedule: Q01DX001 (ip), vehicle: saline 90 % of control

Oc1c(Br)cc(Br)cc1C=Nc1ccc(Cl)cc1.Oc1c(Br)cc(Br)cc1C=Nc1ccc(Cl)cc1.[Co]
inactive: [8] 98 % of control | [9] 103 % of control | [10] 98 % of control

CCCC1(CC)C(=O)NC(=S)N(C)C1=O (stereo not drawn)
inactive: [4] 95 % of control | dose: 75.0 mg/kg/injection, schedule: Q01DX001 (ip), vehicle: other 94 % of control | [5] 98 % of control | dose: 150.0 mg/kg/injection, schedule: Q01DX001 (ip), vehicle: other 111 % of control | [6] 104 % of control

C=C(Br)CNC(N)=S
inactive: dose: 50.0 mg/kg/injection, schedule: Q01DX009 (ip), vehicle: Klucel (hydroxypropylcellulose) (HPC) 96 % of control | [17] 100 % of control | [14] 94 % of control | [18] 102 % of control | [15] 95 % of control

O=CNC(NC=O)c1ccccc1[N+](=O)[O-]
inactive: [17] 101 % of control | [14] 104 % of control | [18] 98 % of control | [15] 98 % of control | [19] 97 % of control | [16] 100 % of control

O=C(O)CCC(Nc1sc([N+](=O)[O-])cc1[N+](=O)[O-])C(=O)O (stereo not drawn)
inactive: [11] 95 % of control | [12] 106 % of control | [13] 92 % of control

CCOC(=O)c1ccc(NC(=O)Oc2cc(C)c(Cl)c(C)c2)cc1
inactive: [17] 95 % of control | [18] 90 % of control | [19] 96 % of control

CC(CCC(CCC(C)CC(C)(C)C)CCC(C)CC(C)(C)C)CC(C)(C)C (stereo not drawn)
inactive: dose: 75.0 mg/kg/injection, schedule: Q01DX001 (ip), vehicle: saline with Tween-80 104 % of control | dose: 300.0 mg/kg/injection, schedule: Q01DX001 (ip), vehicle: saline with Tween-80 97 % of control

CN(c1ccccc1)S(=O)(=O)c1ccc(N)cc1
inactive: dose: 100.0 mg/kg/injection, schedule: Q01DX001 (ip), vehicle: Klucel (hydroxypropylcellulose) (HPC) 96 % of control | dose: 200.0 mg/kg/injection, schedule: Q01DX001 (ip), vehicle: Klucel (hydroxypropylcellulose) (HPC) 104 % of control | dose: 400.0 mg/kg/injection, schedule: Q01DX001 (ip), vehicle: Klucel (hydroxypropylcellulose) (HPC) 102 % of control

O=C(NC(=S)NCc1ccccc1)c1ccccc1
inactive: dose: 75.0 mg/kg/injection, schedule: Q01DX001 (ip), vehicle: saline 98 % of control | [7] 93 % of control | dose: 300.0 mg/kg/injection, schedule: Q01DX001 (ip), vehicle: saline 98 % of control

CC1(c2ccc(Cl)cc2)NC(=O)N(CC(N)=O)C1=O (stereo not drawn)
inactive: [8] 105 % of control | [10] 122 % of control

CN1CSCC1C(=O)O (stereo not drawn)
inactive: dose: 100.0 mg/kg/injection, schedule: Q04DX003 (ip), vehicle: saline 94 % of control | dose: 200.0 mg/kg/injection, schedule: Q04DX003 (ip), vehicle: saline 96 % of control

COc1nc(Cl)cc2c1ncn2C1OC(CO)C(O)C1O (stereo not drawn)
inactive: dose: 100.0 mg/kg/injection, schedule: Q01DX005 (ip), vehicle: saline 111 % of control | dose: 200.0 mg/kg/injection, schedule: Q01DX005 (ip), vehicle: saline 108 % of control
